According to patent US10792289B2 (Horizon Orphan LLC, priority 2009, dated 2020):

System: stable CF patients
Assay: Phase 2 study: pulmonary function (FEV1, FVC, FEF 25-75)
Format: in vivo, human
Set-up: FEF 25-75, Median / FEV1, Day 14, Mean / FEF 25-75, Mean: unit not given here; FEV1, Day 1, Mean / FEV1, Day 1, Median / FEV1, Day 14, Median / FEV1, Day 28, Mean / FEV1, Day 28, Median: unit: L
Conditions: EE population
Description: The following dosage regimens (as nebulizer loaded doses) were evaluated: 120 mg QD (daily); 240 mg QD (daily); and 240 mg BID (twice daily).
Efficacy endpoints including clinical endpoints, pulmonary function tests, and additional microbiological parameters were assessed as change from Day 1 to subsequent visits where the endpoint data was collected. Time to need for intravenous/oral/inhaled anti-pseudomonal antimicrobials were assessed from Day 1 until final visit using survival analysis. The primary population for efficacy analysis was the EE population, but efficacy endpoints were also analyzed using the MITT population.
Changes in FEV1 (forced expiratory volume in 1 second), FVC (forced vital capacity) and FEF 25-75 (forced expiratory flow 25-75%) from Day 1 to all subsequent visits were determined for patients. Tables 26 and 27 summarize the results for FEV1 measurements in EE and MITT populations, respectively. FIGS. 7 and 8 show graphs of percent change in FEV1 (L) and percent change in FEV1(L) vs. placebo, respectively, at Day 28 for the EET population treated with placebo, 120 mg QD, 240 mg QD, or 240 mg BID. […] Tables 28 and 29 summarize the results for predicted FEVI measurements in EE and MITT populations, respectively. Tables 30 and 31 summarize results for FEF 25-75 measurements in EE and MITT populations, respectively.

[1] = Day 1 (baseline), combined 240 mg QD and BID
[2] = Day 14, combined 240 mg QD and BID

With `C[C@H]1COc2c(N3CCN(C)CC3)c(F)cc3c(=O)c(C(=O)O)cn1c23` [Levofloxacin, levofloxacin] the “% predicted FEV1, Day 1, Mean” value (120 mg QD) was 54.0 % predicted, the “% predicted FEV1, Day 1, Median” value (120 mg QD) was 53.0 % predicted and the “% predicted FEV1, Day 14, Mean” value (120 mg QD) was 54.7 % predicted. For the same molecule, the “% predicted FEV1, Day 14, Median” value (120 mg QD) was 53.0 % predicted, the “% predicted FEV1, Day 28, Mean” value (120 mg QD) was 55.0 % predicted and the “% predicted FEV1, Day 28, Median” value (120 mg QD) was 52.0 % predicted. The “FEF 25-75, Percent Change from Baseline to Day 14, Mean” value (120 mg QD) was 0.41%, the “FEF 25-75, Percent Change from Baseline to Day 14, Median” value (120 mg QD) was 0.45% and the “FEF 25-75, Percent Change from Baseline to Day 28, Mean” value (120 mg QD) was 0.73%. For the same molecule, the “FEF 25-75, Percent Change from Baseline to Day 28, Median” value (120 mg QD) was 2.70%, the “FEV1, Day 1, Mean” value (120 mg QD) was 1.99 and the “FEV1, Day 1, Median” value (120 mg QD) was 1.87. The “FEV1, Day 14, Mean” value (120 mg QD) was 2.00, the “FEV1, Day 14, Median” value (120 mg QD) was 1.82 and the “FEV1, Day 28, Mean” value (120 mg QD) was 2.03. The “FEV1, Day 28, Median” value (120 mg QD) was 1.91, the “FEV1, Percent Change from Baseline to Day 14, Mean” value (120 mg QD) was 1.13% and the “FEV1, Percent Change from Baseline to Day 14, Median” value (120 mg QD) was 0.56%. For the same molecule, the “FEV1, Percent Change from Baseline to Day 28, Mean” value (120 mg QD) was 1.71%, the “FEV1, Percent Change from Baseline to Day 28, Median” value (120 mg QD) was 1.06% and the “% predicted FEV1, Day 1, Mean” value (240 mg BID) was 48.2 % predicted. The “% predicted FEV1, Day 1, Median” value (240 mg BID) was 45.5 % predicted, the “% predicted FEV1, Day 14, Mean” value (240 mg BID) was 51.7 % predicted and the “% predicted FEV1, Day 14, Median” value (240 mg BID) was 49.5 % predicted. For the same molecule, the “% predicted FEV1, Day 28, Mean” value (240 mg BID) was 50.5 % predicted, the “% predicted FEV1, Day 28, Median” value (240 mg BID) was 49.0 % predicted and the “FEF 25-75, Percent Change from Baseline to Day 14, Mean” value (240 mg BID) was 16.99%. For the same molecule, the “FEF 25-75, Percent Change from Baseline to Day 14, Median” value (240 mg BID) was 11.66%, the “FEF 25-75, Percent Change from Baseline to Day 28, Mean” value (240 mg BID) was 13.11% and the “FEF 25-75, Percent Change from Baseline to Day 28, Median” value (240 mg BID) was 5.71%. The “FEV1, Day 1, Mean” value (240 mg BID) was 1.86, the “FEV1, Day 1, Median” value (240 mg BID) was 1.70 and the “FEV1, Day 14, Mean” value (240 mg BID) was 2.02. The “FEV1, Day 14, Median” value (240 mg BID) was 1.88, the “FEV1, Day 28, Mean” value (240 mg BID) was 1.90 and the “FEV1, Percent Change from Baseline to Day 14, Mean” value (240 mg BID) was 8.87%. For the same molecule, the “FEV1, Percent Change from Baseline to Day 14, Median” value (240 mg BID) was 7.51%, the “FEV1, Percent Change from Baseline to Day 28, Mean” value (240 mg BID) was 5.05% and the “FEV1, Percent Change from Baseline to Day 28, Median” value (240 mg BID) was 4.55%. For the same molecule, the “% predicted FEV1, Day 1, Mean” value (240 mg QD) was 55.9 % predicted, the “% predicted FEV1, Day 1, Median” value (240 mg QD) was 56.0 % predicted and the “% predicted FEV1, Day 14, Mean” value (240 mg QD) was 57.7 % predicted. The “% predicted FEV1, Day 14, Median” value (240 mg QD) was 62.0 % predicted, the “% predicted FEV1, Day 28, Mean” value (240 mg QD) was 57.3 % predicted and the “% predicted FEV1, Day 28, Median” value (240 mg QD) was 58.0 % predicted. For the same molecule, the “FEF 25-75, Percent Change from Baseline to Day 14, Mean” value (240 mg QD) was 9.58%, the “FEF 25-75, Percent Change from Baseline to Day 14, Median” value (240 mg QD) was 4.41% and the “FEF 25-75, Percent Change from Baseline to Day 28, Mean” value (240 mg QD) was 4.70%. The “FEF 25-75, Percent Change from Baseline to Day 28, Median” value (240 mg QD) was 5.77%, the “FEV1, Day 1, Mean” value (240 mg QD) was 2.09 and the “FEV1, Day 1, Median” value (240 mg QD) was 2.02. The “FEV1, Day 14, Mean” value (240 mg QD) was 2.16, the “FEV1, Day 14, Median” value (240 mg QD) was 2.09 and the “FEV1, Day 28, Mean” value (240 mg QD) was 2.13. The “FEV1, Day 28, Median” value (240 mg QD) was 2.15, the “FEV1, Percent Change from Baseline to Day 14, Mean” value (240 mg QD) was 3.84% and the “FEV1, Percent Change from Baseline to Day 14, Median” value (240 mg QD) was 1.92%. The “FEV1, Percent Change from Baseline to Day 28, Mean” value (240 mg QD) was 2.51%, the “FEV1, Percent Change from Baseline to Day 28, Median” value (240 mg QD) was 1.28% and the “% predicted FEV1, Day 1, Mean” value (Combined 240 mg QD and BID) was 52.1 % predicted. For the same molecule, the “% predicted FEV1, Day 1, Median” value (Combined 240 mg QD and BID) was 51.0 % predicted, the “% predicted FEV1, Day 14, Mean” value (Combined 240 mg QD and BID) was 54.7 % predicted and the “% predicted FEV1, Day 14, Median” value (Combined 240 mg QD and BID) was 52.0 % predicted. The “% predicted FEV1, Day 28, Mean” value (Combined 240 mg QD and BID) was 54.0 % predicted, the “% predicted FEV1, Day 28, Median” value (Combined 240 mg QD and BID) was 54.0 % predicted and the “FEF 25-75, Percent Change from Baseline to Day 14, Mean” value (Combined 240 mg QD and BID) was 13.23%. The “FEF 25-75, Percent Change from Baseline to Day 14, Median” value (Combined 240 mg QD and BID) was 8.79%, the “FEF 25-75, Percent Change from Baseline to Day 28, Mean” value (Combined 240 mg QD and BID) was 8.78% and the “FEF 25-75, Percent Change from Baseline to Day 28, Median” value (Combined 240 mg QD and BID) was 5.74%. For the same molecule, the “FEV1, Day 1, Mean” value (Combined 240 mg QD and BID) was 1.98, the “FEV1, Day 1, Median” value (Combined 240 mg QD and BID) was 1.81 and the “FEV1, Day 14, Mean” value (Combined 240 mg QD and BID) was 2.09. For the same molecule, the “FEV1, Day 14, Median” value (Combined 240 mg QD and BID) was 2.03, the “FEV1, Day 28, Mean” value (Combined 240 mg QD and BID) was 2.02 and the “FEV1, Day 28, Median” value (Combined 240 mg QD and BID) was 1.98. For the same molecule, the “FEV1, Percent Change from Baseline to Day 14, Mean” value (Combined 240 mg QD and BID) was 6.32%, the “FEV1, Percent Change from Baseline to Day 14, Median” value (Combined 240 mg QD and BID) was 3.94% and the “FEV1, Percent Change from Baseline to Day 28, Mean” value (Combined 240 mg QD and BID) was 3.75%. For the same molecule, the “FEV1, Percent Change from Baseline to Day 28, Median” value (Combined 240 mg QD and BID) was 2.80%, the “FEF 25-75, Mean” value (Day 1 (baseline), 120 mg QD) was 1.17 and the “FEF 25-75, Median” value (Day 1 (baseline), 120 mg QD) was 0.98. The “FEF 25-75, Mean” value (Day 1 (baseline), 240 mg BID) was 0.85, the “FEF 25-75, Median” value (Day 1 (baseline), 240 mg BID) was 0.68 and the “FEF 25-75, Mean” value (Day 1 (baseline), 240 mg QD) was 1.22. For the same molecule, the “FEF 25-75, Median” value (Day 1 (baseline), 240 mg QD) was 1.10, the “FEF 25-75, Mean” value [1] was 1.04 and the “FEF 25-75, Median” value [1] was 0.83. For the same molecule, the “FEF 25-75, Mean” value (Day 14, 120 mg QD) was 1.18, the “FEF 25-75, Median” value (Day 14, 120 mg QD) was 0.99 and the “FEF 25-75, Mean” value (Day 14, 240 mg BID) was 1.00. For the same molecule, the “FEF 25-75, Median” value (Day 14, 240 mg BID) was 0.78, the “FEF 25-75, Mean” value (Day 14, 240 mg QD) was 1.33 and the “FEF 25-75, Median” value (Day 14, 240 mg QD) was 1.11. For the same molecule, the “FEF 25-75, Mean” value [2] was 1.17, the “FEF 25-75, Median” value [2] was 0.92 and the “FEF 25-75, Mean” value (Day 28, 120 mg QD) was 1.23. For the same molecule, the “FEF 25-75, Median” value (Day 28, 120 mg QD) was 1.03, the “FEF 25-75, Mean” value (Day 28, 240 mg BID) was 0.93 and the “FEF 25-75, Median” value (Day 28, 240 mg BID) was 0.78. The “FEF 25-75, Mean” value (Day 28, 240 mg QD) was 1.27, the “FEF 25-75, Median” value (Day 28, 240 mg QD) was 1.15 and the “FEF 25-75, Mean” value (Day 28, combined 240 mg QD and BID) was 1.10.
